{"source": "ChEMBL document CHEMBL1141274", "about": "“A Polysaccharide from tomato (Lycopersicon esculentum) peels affects NF-kappaB activation in LPS-stimulated J774 macrophages” (2007)", "format_in_all_cases": "functional", "key": {"J774 [1]": {"test_system": "J774", "test": "Inhibition of iNOS protein expression in mouse J774 cells by Bio-Rad protein assay"}, "J774 [2]": {"test_system": "J774", "test": "Inhibition of LPS induced nitrite production in mouse J774 cells at 10 uM after 24 hrs relative to control", "conditions": "J774, 24 h"}, "J774 [3]": {"test_system": "J774", "test": "Inhibition of LPS induced ROS production in mouse J774 cells at 10 uM after 24 hrs relative to control", "conditions": "J774, 24 h"}, "J774 [4]": {"test_system": "J774", "test": "Inhibition of LPS induced iNOS mRNA level in mouse J774 cells at 10 uM by RT-PCR"}}, "data": [{"smiles": "S=C(S)N1CCCC1", "note": "[PYRROLIDINE DITHIOCARBAMATE]", "values": [{"measurement": "Inhibition", "setting": "J774 [1]", "result": 60, "unit": "%"}, {"measurement": "inhibition at 10 µM", "setting": "J774 [2]", "result": 69.3, "unit": "%"}, {"measurement": "inhibition at 10 µM", "setting": "J774 [3]", "result": 42.2, "unit": "%"}, {"measurement": "inhibition at 10 µM", "setting": "J774 [4]", "result": 63.9, "unit": "%"}]}]}
